Assay results as given in ChEMBL document CHEMBL1201862, “PubChem BioAssay data set” (2004).
Values joined by “and” are separate entries in the source; they are usually repeats but may differ in a detail not shown here. Identical values can stand only once.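 Grown in 96-well plates, cells were treated for 48 hours with each compound at five concentrations. Insufficient inhibition: endpoint recorded as highest concentration tested. GI50 = concentration required for 50% inhibition of growth.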 Active and inactive are the calls of the source. Rule as the data show it: active = GI50 up to about 1.1 µM and inactive = higher.

Legend:
Assay in all cases: NCI tumour cell line growth inhibition, 48 h
786-0 = tested on: 786-0
BT-549 = tested on: BT-549
CAKI-1 = tested on: CAKI-1
CCRF-CEM = tested on: CCRF-CEM
EKVX = tested on: EKVX
HL-60 = tested on: HL-60
Hs-578T = tested on: Hs-578T
K562 = tested on: K562
MDA-MB-231 = tested on: MDA-MB-231
MOLT-4 = tested on: MOLT-4
NCI-H226 = tested on: NCI-H226
NCI-H522 = tested on: NCI-H522
NCI/ADR-RES = tested on: NCI/ADR-RES
OVCAR-5 = tested on: OVCAR-5
OVCAR-8 = tested on: OVCAR-8
RPMI-8226 = tested on: RPMI-8226
SF-268 = tested on: SF-268
SF-295 = tested on: SF-295
SF-539 = tested on: SF-539
SK-MEL-28 = tested on: SK-MEL-28
SK-MEL-2 = tested on: SK-MEL-2
SK-MEL-5 = tested on: SK-MEL-5
SK-OV-3 = tested on: SK-OV-3
SNB-75 = tested on: SNB-75
SR = tested on: SR
SW-620 = tested on: SW-620
TK-10 = tested on: TK-10
U-251 = tested on: U-251
A498 = tested on: A498
A549 = tested on: A549
ACHN = tested on: ACHN
COLO 205 = tested on: COLO 205
DU-145 = tested on: DU-145
HCC 2998 = tested on: HCC 2998
HCT-116 = tested on: HCT-116
HCT-15 = tested on: HCT-15
HOP-62 = tested on: HOP-62
HOP-92 = tested on: HOP-92
HT-29 = tested on: HT-29
IGROV-1 = tested on: IGROV-1
KM12 = tested on: KM12
LOX IMVI = tested on: LOX IMVI
M14 = tested on: M14
MCF7 = tested on: MCF7
MDA-MB-435 = tested on: MDA-MB-435
MDA-N = tested on: MDA-N
Malme-3M = tested on: Malme-3M
NCI-H23 = tested on: NCI-H23
NCI-H460 = tested on: NCI-H460
OVCAR-3 = tested on: OVCAR-3
OVCAR-4 = tested on: OVCAR-4
PC-3 = tested on: PC-3
RXF 393 = tested on: RXF 393
SN12C = tested on: SN12C
SNB-19 = tested on: SNB-19
T47D = tested on: T47D
UACC-257 = tested on: UACC-257
UACC-62 = tested on: UACC-62
UO-31 = tested on: UO-31

Measured: GI50

Cc1ccc(OCC2OC(n3cnc4c(Cl)ncnc43)CC2Oc2ccc(C)cc2)cc1 (configuration not stated)
inactive: 786-0 31.8 µM and 17.4 µM | BT-549 20.2 µM and 18.5 µM | CAKI-1 2.21 µM and 1.94 µM | CCRF-CEM 4.78 µM and 5.09 µM | EKVX 3.06 µM and 2.84 µM | HL-60 2.29 µM and 1.72 µM | Hs-578T 6.84 µM and 4.7 µM | K562 4.92 µM and 2.99 µM | MDA-MB-231 9.51 µM and 5.35 µM | MOLT-4 2.48 µM and 2.49 µM | NCI-H226 11.9 µM and 20.8 µM | NCI-H522 2.27 µM and 1.71 µM | NCI/ADR-RES 12.4 µM and 19.2 µM | OVCAR-5 26.4 µM and 24.9 µM | OVCAR-8 8.93 µM and 8.3 µM | RPMI-8226 2.69 µM and 5.31 µM | SF-268 7.91 µM and 4.74 µM | SF-295 20 µM and 14.9 µM | SF-539 22.9 µM and 15.8 µM | SK-MEL-28 1.71 µM and 2.13 µM | SK-MEL-2 12.4 µM and 17.3 µM | SK-MEL-5 15.4 µM and 18.7 µM | SK-OV-3 29.8 µM and 20 µM | SNB-75 26.1 µM and 15.8 µM | SR 2.66 µM and 3.29 µM | SW-620 2.07 µM and 3.43 µM | TK-10 30.5 µM and 45 µM | U-251 1.97 µM and 2.55 µM

Cc1[nH]c2c(c1C)S(=O)(=O)c1cc3ccccc3nc1N2
inactive: 786-0 16.6 µM | A498 73.8 µM | A549 36.3 µM | ACHN 29.5 µM | BT-549 69.8 µM | CAKI-1 30.5 µM | CCRF-CEM 5.09 µM | COLO 205 20 µM | DU-145 24.9 µM | EKVX 36.7 µM | HCC 2998 65.2 µM | HCT-116 15.8 µM | HOP-62 18.2 µM | HOP-92 25.4 µM | HT-29 15 µM | IGROV-1 10.1 µM | K562 10.9 µM | KM12 27.9 µM | LOX IMVI 10.6 µM | M14 20 µM | MCF7 5.15 µM | MDA-MB-231 27.8 µM | MDA-MB-435 26.4 µM | MDA-N 15.7 µM | MOLT-4 > 100 µM | Malme-3M 16.6 µM | NCI-H226 22 µM | NCI-H23 23.9 µM | NCI-H460 18.7 µM | NCI-H522 21.4 µM | NCI/ADR-RES 32.3 µM | OVCAR-3 19.9 µM | OVCAR-4 14.3 µM | OVCAR-5 19.7 µM | OVCAR-8 12.3 µM | PC-3 34.3 µM | RPMI-8226 14.7 µM | RXF 393 19.3 µM | SF-268 28.1 µM | SF-295 27.3 µM | SF-539 6.81 µM | SK-MEL-28 25.5 µM | SK-MEL-2 55.3 µM | SK-MEL-5 14.6 µM | SK-OV-3 30.8 µM | SN12C 16.4 µM | SNB-19 26.2 µM | SNB-75 17.3 µM | SR 17.1 µM | SW-620 40.4 µM | T47D > 100 µM | TK-10 37.7 µM | U-251 11.2 µM | UACC-257 35.9 µM | UACC-62 42.7 µM | UO-31 21.6 µM
22.1 µM: HCT-15

COc1ccc2c(C(=O)c3cn(CCN4CCOCC4)c4ccccc34)cccc2c1
inactive: 786-0 > 20.8 µM | A498 > 100 µM | A549 6.76 µM | ACHN > 96.4 µM | BT-549 > 95.5 µM | CAKI-1 > 46 µM | CCRF-CEM 4.45 µM | COLO 205 58.9 µM | DU-145 > 23.6 µM | EKVX > 48.2 µM | HCC 2998 41.7 µM | HCT-116 27.2 µM | HL-60 18.3 µM | HOP-62 > 22 µM | HOP-92 > 100 µM | HT-29 53.6 µM | IGROV-1 > 91 µM | K562 36.6 µM | KM12 3.95 µM | LOX IMVI 22.3 µM | M14 > 31.1 µM | MCF7 5.01 µM | MDA-MB-231 > 100 µM | MDA-MB-435 8.26 µM | MDA-N 37.8 µM | MOLT-4 15.1 µM | Malme-3M 15.8 µM | NCI-H226 > 100 µM | NCI-H23 > 100 µM | NCI-H460 4.65 µM | NCI-H522 6.65 µM | NCI/ADR-RES > 34.4 µM | OVCAR-3 13.6 µM | OVCAR-4 12.6 µM | OVCAR-5 > 100 µM | OVCAR-8 43 µM | PC-3 30.8 µM | RPMI-8226 21.2 µM | RXF 393 > 67.6 µM | SF-268 > 80.2 µM | SF-295 5.6 µM | SF-539 > 80 µM | SK-MEL-28 > 62.4 µM | SK-MEL-2 > 100 µM | SK-MEL-5 60 µM | SK-OV-3 4.22 µM | SN12C > 71.4 µM | SNB-75 88.5 µM | SR 47.5 µM | SW-620 31 µM | T47D 38 µM | TK-10 > 100 µM | U-251 7.33 µM | UACC-257 75.9 µM | UACC-62 > 29.6 µM | UO-31 > 32 µM
51.8 µM: HCT-15
